Measured values published in US20050192228A1, “Tripeptide derivatives for the treatment of neurodegenerative diseases” (priority 2001, published 2005).

Tests used:
Type in all cases: in vivo, Male Wistar rats
[1] = tested on: glucocorticoid receptors of the hippocampus; test: Dexamethasone model: determination of the corticoide receptors in the hippocampus (3H-dexamethasone binding); conditions: for Type I receptors in Femtomol/mg protein: dexamethasone 50 mg/kg/day, hippocampi removed after the last learning session; for effect on number of receptors of hippocampus neurons (in words): dexamethasone model
Description: (§1) 40 rats were kept and operated as described above. Then, they were divided into the following groups: • one group of 10 rats which received 5 μl/day of physiological serum • one group of 30 rats which received 50 mg/kg/day dexamethasone, dissolved in physiological serum.
After the last learning session at 10.00 a.m., the rats were sacrificed by means of decapitation, and the hippocampi were quickly removed and put on a plate cooled to 0° C. The number of glucocorticoid receptors was determined by a binding method using a labeled corticoid and a specific inhibitor to the binding of the corticoid to the receptor (here a total agonist). The protein content was measured by Lowry's method.
The hippocampi of each rat were homogenized in 2 ml of sodium EDTA Glycerol molybdate buffer. The homogenate was centrifugated at 100.000 g for 60 minutes. An aliquot of the supernatant was diluted in distilled water, and the protein content was measured by Lowry's method.
The rest of the supernatant was divided into three parts of 0.2 ml each. Increasing concentrations (25, 50 and 75 nmoles/ml) of dexamethasone 3H (Amersham 50 Ci/mM) were added to these parts. Three other preparations were carried out under the same conditions, while a saturating quantity of a total […] of the receptors (RU 28362) was added to obtain a non-specific binding of the labeled dexamethasone.
After one night of incubation at 4° C., charcoal/dextran was added to absorb […] dexamethasone. After centrifugation, the radioactivity of the supernatant was measured by liquid scintillation.
The radioactive quantities of the dexamethasone bound to the protein content are recorded. Results are expressed in femtomoles of the labeled corticoid bound to the receptor per mg of proteins.

[2] = tested on: hippocampal neurons; test: Gp120 model: neuronal count in the CA III layers of the hippocampus; conditions: percentage of the control group, treatment 10 mg/kg/day for 5 days
Description: After the last learning session, the rats were sacrificed by means of decapitation, and the brain was isolated and frozen to −80° C. with liquid nitrogen. Cuts of a thickness of 50 μm were obtained in a “cryo-cut”, and the neurons are counted in the CA III layers of the hippocampus under a microscope. The results are expressed as percentage of the control group.

[3] = tested on: rats given vincristine (vincristine model); test: Vincristine model: sound avoidance conditioning; conditions: for percentage of avoidance, Day 0 / percentage of avoidance, Day 1 / percentage of avoidance, Day 2 / percentage of avoidance, Day 3 / percentage of avoidance, Day 4: vincristine 5 μg/kg/day for 5 days; for percentage of avoidance, Day 0: learning Day 0; for percentage of avoidance, Day 1: learning Day 1; for percentage of avoidance, Day 2: learning Day 2; for percentage of avoidance, Day 3: learning Day 3; for percentage of avoidance, Day 4: learning Day 4; for AUC pro Tag: average area under the learning curve per day, maximum value 100
Description: Rats were kept and treated as described above in 3. Then they were divided into the following groups: • one group of 10 rats which received 5 μl/day of physiological serum over a period of 5 days • one group of 30 rats which received 5 μl/day of physiological serum containing 5 μg/kg vincristine over a period of 5 days
A dosage of 5 μg/kg/day causes a 40 to 60% loss of the hippocampal arborization.
After the last administration, the second group of 30 rats was divided at random into three sub-groups and treated as described above in 3.
(§2) During the last five days of treatment, at 10.00 a.m. (1 hour after the administration of Cinnamoyl-Gly-Phe-PrONH2), the animals were placed into a learning cage for sound avoidance conditioning (Conditioning avoidance response). The animals learned to climb a pole first to escape from and then to avoid an electric shock. This method was standardized and quantified. (see Le Poncin M., Lafitte J. C., Rapin J. R., Sound Avoidance Conditioning and a Mathematical approach to the description of acquisition performance, Math. Biosciences 59 (1982) 242-268).
(§3) For a period of five days, the animals were placed everyday under these learning conditions for a total of ten tests a day. Results are expressed as percentage of adequate responses, and the kinetics of the responses is represented by a multi-exponential maximum curve.
(§4) The curve maximum represents the learning capacities. The slope of the curve evaluates the learning speed. The area under the curve (AUC) represents a good evaluation of all conditioning parameters. The maximum value of the area under the curve is 500, if the animals show 100% adequate responses as early as Day 0. In fact, an average area under the curve is calculated per day, what amounts to a maximum value of 100. In the absolute control animals, this average area under the curve is equal to 40+/−4.

[4] = tested on: rats given Gp120 (Gp120 model); test: Gp120 model: sound avoidance conditioning (pole climbing test); conditions: for percentage of avoidance, Day 0 / percentage of avoidance, Day 1 / percentage of avoidance, Day 2 / percentage of avoidance, Day 3 / percentage of avoidance, Day 4: Gp120 10 nM/kg/day for 5 days; for percentage of avoidance, Day 0 / percentage of avoidance, Day 1 / percentage of avoidance, Day 2 / percentage of avoidance, Day 3 / percentage of avoidance, Day 4 / AUC (average area under the learning curve per day): treatment 10 mg/kg/day for 5 days; for percentage of avoidance, Day 0: learning Day 0; for percentage of avoidance, Day 1: learning Day 1; for percentage of avoidance, Day 2: learning Day 2; for percentage of avoidance, Day 3: learning Day 3; for percentage of avoidance, Day 4: learning Day 4; for effect on learning parameters (in words) / AUC (average area under the learning curve per day): Gp120 model; for AUC (average area under the learning curve per day): maximum value 100
From the text: 40 rats were slightly anesthetized by ether, an incision was made into the skin of the skull, and the skull was pierced by means of a dental burr. A metal needle was stereotaxically directed to the lateral ventricle, and then fixed by means of dental cement. Every day of the experiment, the patency of the needle was controlled.
Three days after introducing the needle (recovery from the postoperative shock) the non-anesthetized animals were divided into 2 groups: • one group of 10 rats to which 5 μl of physiological serum was injected • one group of 30 rats to which 5 μl of physiological serum containing Gp120 in an amount of 10 nM/kg was injected
This administration was repeated every day for a period of five days.
Ten days after the last administration of Gp120, the thirty rats were randomly divided into three groups of 10 animals each: • (i) one group of 10 rats received 1 ml/kg/day of normal saline (controls) for a period of 5 days. • (ii) one group of 10 rats received 10 mg/kg/day of Cinnamoyl-Gly-L-Phe-L-PrONH2 dissolved in normal saline for a period of 5 days. • (iii) one group of 10 rats received 10 mg/kg/day of tacrine peros for a period of 5 days
(§5) During the last five days of treatment, the rats were placed under the common learning conditions of the three models between 10.00 a.m. and 11.00 a.m. (see below).
as §2, §3, §4

[5] = tested on: rats given dexamethasone (dexamethasone model); test: Dexamethasone model: sound avoidance conditioning; conditions: for percentage of avoidance, Day 0 / percentage of avoidance, Day 1 / percentage of avoidance, Day 2 / percentage of avoidance, Day 3 / percentage of avoidance, Day 4: dexamethasone 50 mg/kg/day; for percentage of avoidance, Day 0: learning Day 0; for percentage of avoidance, Day 1: learning Day 1; for percentage of avoidance, Day 2: learning Day 2; for percentage of avoidance, Day 3: learning Day 3; for percentage of avoidance, Day 4: learning Day 4; for effect on learning capacity (in words) / AUC (average area under the learning curve per day): dexamethasone model; for AUC (average area under the learning curve per day): maximum value 100
Description: as §1, §5, §2, §3, §4

[6] = tested on: hippocampal arborization; test: Vincristine model: loss of the hippocampal arborization; conditions: vincristine 5 μg/kg/day
Description: Vincristine is an anticarcinogen that is used as a synchronizing agent. This molecule binds to the spindle of microtubules, thus blocking the cellular multiplication during the metaphase. It is a spindle poison. […] Vincristine binds to these neurofibrils thus causing peripheral neural conduction disorders in patients who are treated for neoplasm. These effects mainly affect the white matter of the axons. […] The repeated ICV administration of vincristine causes a degeneration of the conduction pathways with the appearance of abnormal neurofibrils similar to those observed in Alzheimer's disease. This degeneration mainly affects the periventricular structures. The hippocampi are affected through a decrease of their ramifications, while the cell bodies of the neurons are not altered. […] After this period, a protective layer forms on the glia cells that prevent the diffusion of vincristine from the CSF to the neighboring nerve cells. There is no spontaneously developing Alzheimer's disease in rats that would show the different types of degenerative lesions (beta-amyloid plaques, neurofibrillary and vacuolar degeneration). ICV administration of vincristine, which may cause neurofibrillary degeneration, may be used as a partial animal model of this disease. […]

Row | Structure (SMILES) | Type I receptors in Femtomol/mg protein [1] | effect on number of receptors of hippocampus neurons (in words) [1] | Percentage of hippocampal neurons [2] | percentage of avoidance, Day 0 [3] | percentage of avoidance, Day 1 [3] | percentage of avoidance, Day 2 [3] | percentage of avoidance, Day 3 [3] | percentage of avoidance, Day 4 [3] | AUC pro Tag ([3]; vincristine model) | percentage of avoidance, Day 0 [4] | percentage of avoidance, Day 1 [4] | percentage of avoidance, Day 2 [4] | percentage of avoidance, Day 3 [4] | percentage of avoidance, Day 4 [4] | effect on learning parameters (in words) [4] | AUC (average area under the learning curve per day) [4] | percentage of avoidance, Day 0 [5] | percentage of avoidance, Day 1 [5] | percentage of avoidance, Day 2 [5] | percentage of avoidance, Day 3 [5] | also measured
1 | C[C@@H]1C[C@H]2[C@@H]3CCC4=CC(=O)C=C[C@]4(C)[C@@]3(F)[C@@H](O)C[C@]2(C)[C@@]1(O)C(=O)CO [dexamethasone] | – | – | – | – | – | – | – | – | – | – | – | – | – | – | – | – | – | – | – | – | decrease in the number of corticoide receptors in the hippocampus ([1]; dexamethasone, dosage and treatment time of this experiment): ~60%
2 | Nc1c2c(nc3ccccc13)CCCC2 [tacrine] | 46 ± 5 Femtomol/mg protein | does not show any effect | 45 ± 3% | 0% | 2 +/− 1% | 7 +/− 2% | 19 +/− 2% | 28 +/− 3% | 11.2 +/− 0.8 | 0% | 5 +/− 2% | **18 +/− 2% | **31 +/− 3% | **42 +/− 4% | partly restores the learning parameters | 19.4 +/− 2.2 | 0% | 5 +/− 2% | 15 +/− 3% | 42 +/− 4% | effect on learning capacities (in words) ([3]; vincristine model): does not show an effect; percentage of avoidance, Day 4 [5]: 52 +/− 4%; effect on learning capacity (in words) [5]: does not show any effect; AUC (average area under the learning curve per day) [5]: 22.8 +/− 1.3
3 | NC(=O)[C@@H]1CCCN1C(=O)[C@H](Cc1ccccc1)NC(=O)CNC(=O)C=Cc1ccccc1 [tripeptide derivative, cinnamoyl-glycyl-L-phenylalanyl-L-prolineamide] | **85 ± 9 Femtomol/mg protein | significant increase of the number of receptors | *54 ± 3% | 0% | 5 +/− 2% | **20 +/− 2% | **45 +/− 3% | **53 +/− 3% | **24.6 +/− 1.0 | 0% | 5 +/− 2% | **18 +/− 2% | **32 +/− 2% | **43 +/− 3% | improvement of the learning capacities | **19.6 +/− 1.8 | 0% | 8 +/− 3% | **28 +/− 3% | **68 +/− 3% | effect on learning parameters (in words) ([4]; listed as Cinnamoyl-Gly-Phe-ProNH2): partly restores the learning parameters; percentage of avoidance, Day 4 [5]: **77 +/− 3%; effect on learning capacity (in words) [5]: considerably restores the learning capacity; AUC (average area under the learning curve per day) [5]: **36.2 +/− 1.2
4 | CC[C@]1(O)C[C@H]2CN(CCc3c([nH]c4ccccc34)[C@@](C(=O)OC)(c3cc4c(cc3OC)N(C=O)[C@H]3[C@@](O)(C(=O)OC)[C@H](OC(C)=O)[C@]5(CC)C=CCN6CC[C@]43[C@@H]65)C2)C1 [vincristine] | – | – | – | – | – | – | – | – | – | – | – | – | – | – | – | – | – | – | – | – | loss of the hippocampal arborization [6]: 40 to 60%
